# Reference: patent publication US9233961B2, “Compounds and compositions for the treatment of parasitic diseases” (Novartis AG, priority 2013, dated 2016)
# Assays:
# [1] = tested on: L. donovani HU3 strain in mouse peritoneal macrophages; assay: Assay for proliferation of Leishmania parasites in mouse peritoneal macrophages; type: cell-based, Leishmania donovani; settings: Leishmania donovani, Peritoneal macrophage, read-out: L. donavani Macrophage EC50
# From the text: Assay for Proliferation of Leishmania Parasites
# The activity of a compound according to the present invention for inhibition of parasitemai can be assessed by the parasite proliferation assay. The assay measures the increase in the parasite number in the assayed plate well using a DNA intercalating dye, SYBR Green I® dye (INVITROGEN) to stain Leishmania cell nuclei. It is understood that the assays illustrate the invention without in any way limiting the scope of the invention.
# L. donovani HU3 strain is propagated by infecting BALB/c mice through tail vein injection with 10^7 Leishmania parasites. Infected mice are allowed to develop infection during 9-11 weeks post-infection. During this time, the parasites accumulate in the infected mouse spleens to large numbers, and the infected mice serve as the source of parasites for the in vitro measurement of compound efficacies. To assay a compound for anti-leishmanial activity, peritoneal macrophages isolated from non-infected BALB/c mice are seeded into 384-well plates at density 2×10^4 macrophages per well in […] of medium (RPMI 1640, 10% […], 10 mM HEPES, 1 mM sodium pyruvate, 1% Pen/Strep). Subsequently, the seeded plates are placed into an incubator set to maintain 37° C. temperature and atmosphere with 5% CO2. The next day, Leishmania parasites are isolated from the spleens of mice infected for 9-11 weeks and 4×10^5 isolated parasites in […] of the above media are added to each plate well. Plates are then returned into incubators and infection is allowed to proceed for 24 hours. After the infection of macrophages is completed, […] of compounds of the invention in the above medium, which also contains 5% DMSO, are added to plate wells containing infected macrophages. At the same time control compounds (miltefosine and amphotericin B) and DMSO are added to plates to serve as the positive and negative controls, respectively. After the compound addition, the plates are returned into incubator and cells infected with parasites are cultured for 5 days. At the end of cultivation, […] of 8% paraformaldehyde is added to plate wells and incubated for 15 min at room temperature. Following the incubation, the paraformaldehyde from plate wells is aspirated, and […] of PBS containing 0.2% Triton X-100 is added to wells. After 15 min incubation, the solution is aspirated from wells again, and replaced with SybrGreen Dye solution in PBS (1:125,000 dilution). Infected cells are imaged with Evotec Opera high-content microscope, and the number of parasites in well is determined by counting parasite nuclei visualized by staining with SybrGreen dye. The percentage inhibition of 50%, EC50, is calculated for each compound.
# The inhibitory efficacy of the compounds of the invention in delaying the proliferation of L. donovani in mouse peritoneal macrophages is provided in Table I, infra.
# [2] = tested on: Leishmania donovani axenic amastigote parasites; assay: Leishmania donovani axenic amastigote proliferation assay; type: cell-based; settings: axenic amastigotes in vitro, read-out: L. donovani amastigotes EC50
# Method: Leishmania Donovani Axenic Amastigote Proliferation Assay
# Leishmania donovani axenic amastigote parasites are grown at 37° C., 5% CO2 in media made of RPMI 1640, 4 mM L-glutamine, 20% heat inactivated FBS, 100 units/ml of penicillin and 100 μg/ml of streptomycin, 23 μM Folic Acid, 100 μM Adenosine, 22 mM D-glucose, 25 mM MES. The pH of media is adjusted to 5.5 at 37° C. using HCl. 20 μL of media is first dispensed into 384 well plates and 100 nL of the compounds of invention in DMSO are added to the plate wells. At the same time control compounds and DMSO are added to plates to serve as the positive and negative controls, respectively. 40 μL of parasite culture (9600 parasites) are then added to the plate wells. The plates are then placed into incubators. After 2 day incubation, 20 μL of Cell TiterGlo (Promega) is added to the plate wells. The luminescence signal of each well is measured using the Envision reader (Perkin Elmer). The percentage inhibition of 50%, EC50, is calculated for each of the compounds.
smiles,measurement,setting,value
CC(C)Cc1cnc2nc(-c3cc(NC(=O)c4ccco4)ccc3Cl)[nH]c2c1 [Compound 76],EC50,[1],> 50 µM
same,EC50,[2],> 25 µM
CC(C)c1cnc2nc(-c3cc(NC(=O)c4ccco4)ccc3Cl)[nH]c2c1 [Compound 77],EC50,[1],35 µM
same,EC50,[2],6.7 µM
Cc1cnc2nc(-c3cc(NC(=O)Cc4cc(C)no4)ccc3Cl)[nH]c2c1 [Compound 88],EC50,[1],> 50 µM
same,EC50,[2],> 25 µM
Cc1cnc2nc(-c3cc(NC(=O)c4ccc(F)o4)ccc3Cl)[nH]c2c1 [Compound 90],EC50,[1],8 µM
same,EC50,[2],1.88 µM
Cc1cnc2nc(-c3cc(NC(=O)c4ccns4)ccc3Cl)[nH]c2c1 [Compound 91],EC50,[1],5.6 µM
same,EC50,[2],3.2 µM
Cc1cnc2nc(-c3cc(NC(=O)c4ccnnc4)ccc3Cl)[nH]c2c1 [Compound 92],EC50,[1],> 50 µM
same,EC50,[2],> 20 µM
CCOc1cc(C(=O)Nc2ccc(Cl)c(-c3nc4ncc(C)cc4[nH]3)c2)ccn1 [Compound 93],EC50,[1],> 35.5 µM
same,EC50,[2],> 25 µM
Cc1cnc2nc(-c3cc(NC(=O)c4ccc(CN(C)C)o4)ccc3Cl)[nH]c2c1 [Compound 94],EC50,[1],4.9 µM
same,EC50,[2],> 25 µM
Cc1cnc2nc(-c3cc(NC(=O)c4cncc(C#N)c4)ccc3Cl)[nH]c2c1 [Compound 101],EC50,[1],> 50 µM
same,EC50,[2],13.5 µM
Cc1cncc(C(=O)Nc2ccc(Cl)c(-c3nc4ncc(C)cc4[nH]3)c2)c1 [Compound 102],EC50,[1],11.7 µM
same,EC50,[2],16.1 µM
Cc1cnc2nc(-c3cc(NC(=O)C4CCO4)ccc3Cl)[nH]c2c1 (centres unmarked) [Compound 103],EC50,[1],> 50 µM
same,EC50,[2],> 25 µM
Cc1cnc2nc(-c3cc(NC(=O)c4ncco4)ccc3Cl)[nH]c2c1 [Compound 104],EC50,[1],> 50 µM
same,EC50,[2],> 25 µM
Cc1cnc2nc(-c3cc(NC(=O)c4c(C)noc4C)ccc3Cl)[nH]c2c1 [Compound 105],EC50,[1],> 50 µM
same,EC50,[2],> 25 µM
Cc1cnc2nc(-c3cc(NC(=O)c4cncc(Cl)n4)ccc3Cl)[nH]c2c1 [Compound 127],EC50,[1],4.8 µM
same,EC50,[2],1.2 µM
COc1cc(C(=O)Nc2ccc(Cl)c(-c3nc4ncc(C)cc4[nH]3)c2)ccn1 [Compound 129],EC50,[1],27.4 µM
same,EC50,[2],> 25 µM
Cc1cnc2nc(-c3cc(NC(=O)c4occc4C)ccc3Cl)[nH]c2c1 [Compound 130],EC50,[1],15.7 µM
same,EC50,[2],2.01 µM
Cc1cnc2nc(-c3cc(NC(=O)CCCN4CCOCC4)ccc3Cl)[nH]c2c1 [Compound 132],EC50,[1],> 50 µM
same,EC50,[2],> 25 µM
Cc1cnc2nc(-c3cc(NC(=O)c4ccc(S(C)(=O)=O)nc4)ccc3Cl)[nH]c2c1 [Compound 136],EC50,[1],> 50 µM
same,EC50,[2],> 25 µM
CSc1nccc(C(=O)Nc2ccc(Cl)c(-c3nc4ncc(C)cc4[nH]3)c2)n1 [Compound 137],EC50,[1],15.9 µM
same,EC50,[2],> 25 µM
Cc1cnc2nc(-c3cc(NC(=O)c4ccc(C(F)(F)F)cc4)ccc3Cl)[nH]c2c1 [Compound 153],EC50,[1],14.9 µM
same,EC50,[2],> 25 µM
Cc1cnc2nc(-c3cc(NC(=O)c4ccnc([S+](C)[O-])n4)ccc3Cl)[nH]c2c1 (centres unmarked) [Compound 154],EC50,[1],> 50 µM
same,EC50,[2],> 24.1 µM
Cc1cnc2nc(-c3cc(NC(=O)c4nc(C)oc4C(F)(F)F)ccc3Cl)[nH]c2c1 [Compound 176],EC50,[1],> 50 µM
same,EC50,[2],> 25 µM
Cc1cnc2nc(-c3cc(NC(=O)C(O)c4ccc(C(F)(F)F)cc4)ccc3Cl)[nH]c2c1 (centres unmarked) [Compound 182],EC50,[1],> 50 µM
same,EC50,[2],> 25 µM
Cc1cnc2nc(-c3cc(NC(=O)CO)ccc3Cl)[nH]c2c1 [Compound 183],EC50,[1],> 50 µM
same,EC50,[2],> 25 µM
Cc1cnc2nc(-c3cc(NC(=O)c4ccnc(C)c4)ccc3Cl)[nH]c2c1 [Compound 188],EC50,[1],11.6 µM
same,EC50,[2],2.26 µM
Cc1cnc2nc(-c3cc(NC(=O)c4ccnc(C)c4C)ccc3Cl)[nH]c2c1 [Compound 189],EC50,[1],> 28.9 µM
same,EC50,[2],> 25 µM
Cc1cnc2nc(-c3cc(NC(=O)c4ccc(OC(F)(F)F)cc4)ccc3Cl)[nH]c2c1 [Compound 210],EC50,[1],> 37.7 µM
same,EC50,[2],> 22 µM
COc1ccc(C(=O)Nc2ccc(Cl)c(-c3nc4ncc(C)cc4[nH]3)c2)cc1 [Compound 211],EC50,[1],> 27.9 µM
same,EC50,[2],> 22.8 µM
[2H]C([2H])([2H])C([2H])([2H])OC(=O)Nc1ccc(Cl)c(-c2nc3ncc(C)cc3[nH]2)c1 [Compound 215],EC50,[1],18.1 µM
same,EC50,[2],13.3 µM
Cc1cnc2nc(-c3cc(NC(=O)N4CC[C@@H](F)C4)ccc3Cl)[nH]c2c1 [Compound 234],EC50,[1],9.7 µM
same,EC50,[2],2.03 µM
Cc1cnc2nc(-c3cc(NC(=O)N4CC[C@H](F)C4)ccc3Cl)[nH]c2c1 [Compound 235],EC50,[1],8.8 µM
same,EC50,[2],3.5 µM
Cc1cnc2nc(-c3cc(NC(=O)Nc4ccc(C(F)(F)F)cc4)ccc3Cl)[nH]c2c1 [Compound 248],EC50,[1],23.1 µM
same,EC50,[2],> 25 µM
Cc1cnc2nc(-c3cc(NC(=O)CCN)ccc3F)[nH]c2c1 [Compound 268],EC50,[1],> 50 µM
same,EC50,[2],> 25 µM
Cc1cnc2nc(-c3cc(NC(=O)c4ccc(OCCN(C)C)cc4)ccc3F)[nH]c2c1 [Compound 269],EC50,[1],> 50 µM
same,EC50,[2],> 25 µM
Cc1cnc2nc(-c3cc(NC(=O)c4ccno4)ccc3F)[nH]c2c1 [Compound 270],EC50,[1],> 50 µM
same,EC50,[2],20 µM
Cc1cnc2nc(-c3cc(NC(=O)[C@H]4C[C@@H](O)CN4)ccc3F)[nH]c2c1 [Compound 271],EC50,[1],> 50 µM
same,EC50,[2],> 25 µM
CC(=O)Nc1ccc(F)c(-c2nc3ncc(C)cc3[nH]2)c1 [Compound 272],EC50,[1],> 50 µM
same,EC50,[2],> 25 µM
Cc1cnc2nc(-c3cc(NC(=O)[C@@H]4CCCN4)ccc3F)[nH]c2c1 [Compound 273],EC50,[1],> 50 µM
same,EC50,[2],> 25 µM
Cc1cnc2nc(-c3cc(NC(=O)c4cc5ccccn5n4)ccc3F)[nH]c2c1 [Compound 274],EC50,[1],26.7 µM
same,EC50,[2],17 µM
Cc1cnc2nc(-c3cc(NC(=O)CCCN(C)C)ccc3F)[nH]c2c1 [Compound 275],EC50,[1],> 50 µM
same,EC50,[2],> 25 µM
CN(C)Cc1ccc(C(=O)Nc2ccc(Cl)c(-c3nc4ncc(C(F)(F)F)cc4[nH]3)c2)o1 [Compound 277],EC50,[1],15.2 µM
same,EC50,[2],> 25 µM
O=C(Nc1ccc(Cl)c(-c2nc3ncc(C(F)(F)F)cc3[nH]2)c1)c1ccccc1Cl [Compound 278],EC50,[1],3.8 µM
same,EC50,[2],> 25 µM
N#Cc1ccc(C(=O)Nc2ccc(Cl)c(-c3nc4ncc(C(F)(F)F)cc4[nH]3)c2)o1 [Compound 281],EC50,[1],6.3 µM
same,EC50,[2],1.98 µM
O=C(Nc1ccc(Cl)c(-c2nc3ncc(C(F)(F)F)cc3[nH]2)c1)c1cncc(F)c1 [Compound 283],EC50,[1],11.4 µM
same,EC50,[2],4 µM
O=C(Nc1ccc(Cl)c(-c2nc3ncc(C(F)(F)F)cc3[nH]2)c1)c1ccc(F)o1 [Compound 284],EC50,[1],4.1 µM
same,EC50,[2],0.7 µM
O=C(Nc1ccc(Cl)c(-c2nc3ncc(C(F)(F)F)cc3[nH]2)c1)c1cnccn1 [Compound 285],EC50,[1],5 µM
same,EC50,[2],0.73 µM
CC(C)OC(=O)Nc1ccc(Cl)c(-c2nc3ncc(C#N)cc3n2C(=O)OC(C)C)c1 [Compound 288],EC50,[1],0.13 µM
same,EC50,[2],1.59 µM
CCOC(=O)Nc1ccc(Cl)c(-c2nc3ncc(C#N)cc3[nH]2)c1 [Compound 289],EC50,[1],8.1 µM
same,EC50,[2],4.2 µM
COC(=O)Nc1ccc(Cl)c(-c2nc3ncc(C#N)cc3[nH]2)c1 [Compound 290],EC50,[1],17.4 µM
same,EC50,[2],15.6 µM
